Reference: a melting point compilation (Tetko et al.; mined from patent text by program, amines drawn as free bases though some values may be those of a salt)

With `Cc1cc2c(cc1Br)OCC(C)(C)CC2(O)c1ccccn1` (stereo not drawn) the melting point was 129 °C. In the case of `O=C1C(c2cccc(-c3ccccc3)c2)n2cncc2CN1Cc1ccccc1` (stereo not drawn), the melting point is reported as 232 to 234 °C. For `COC(=O)[C@@]12CO[C@@H](C(C)(C)C)N1C(=O)[C@](Cc1ccccc1)(C(=O)O)C2`, the melting point was > 133 °C. Molecule `CCCCN1CCC(NS(=O)(=O)c2ccc(Nc3ccnc4cc(Cl)ccc34)cc2)CC1` has a melting point of 190 to 191 °C. Molecule `CCCOc1ccccc1-c1ccc(C(N)=O)c(=O)[nH]1` has a melting point of 176 to 178 °C. For `CCOC(=O)C(=NOC)C(C)=NNC(C)=O`, the melting point was 190 to 192 °C. `Nc1ccc(CCOC(=O)Nc2ccc(Nc3ccccc3)cc2)cc1` gave a melting point of 140 °C. Work on `CC(C)c1cccc2c1C(=O)N(COC(=O)c1c(Cl)ccc(OCC(=O)O)c1Cl)S2(=O)=O` yielded a melting point of 210 to 212 °C. Work on `Cc1ccccc1-c1coc2cc(OCC(=O)O)cc(Cl)c2c1=O` yielded a melting point of 191 to 192 °C. Molecule `Cc1nc2cccc3n(CCC4CCN(S(=O)(=O)C(F)(F)F)CC4)c(=O)c1n23` has a melting point of 169 to 170 °C. Work on `CC(=O)n1ccc2c(C=O)ccc(OCc3ccccc3)c21` yielded a melting point of 77 to 78 °C. `O=C(c1ccccc1)N1CCN(CC(O)Cn2c3ccccc3c3ccccc32)CC1` (stereo not drawn) showed a melting point of 153 °C. `CON1CCC2(CC1)C(O)=C(c1c(C)cc(C)cc1C)C(=O)N2C` showed a melting point of 171 to 178 °C. With `Cc1nnc2n1-c1sc(Cl)cc1C(c1ccccc1Cl)=NC2` the melting point was 205 to 206 °C. Work on `CCCC(Cc1ccc(OCCN2CCOCC2)cc1)(C(=O)NO)S(=O)(=O)c1ccc(OC)cc1` (stereo not drawn) yielded a melting point of 101 °C. For `O=[N+]([O-])c1ccc(Oc2ccc(C(F)(F)F)cc2Cl)nc1O`, the melting point was 87 to 93 °C. For `COC(=O)c1cc(O)cc(O)c1C`, the melting point was 136 to 138 °C. For `COc1cc(C2(O)CCOCC2)ccc1OCc1ccc2ccccc2c1`, the melting point was 150 to 151 °C. `O=C(CC(=O)Oc1cc(O)cc(O)c1)Oc1cc(O)cc(O)c1` gave a melting point of 258 to 260 °C. In the case of `C[C@@H](O)[C@](O)(Cn1cncn1)c1ccc(F)cc1F` (racemic), the melting point is reported as 115 to 117 °C. In the case of `CC(=O)N1c2ccc(-c3ccc(C(=O)O)cc3)cc2[C@H](Nc2ccc(Cl)cc2)C[C@@H]1C`, the melting point is reported as 275 °C. Molecule `COc1cc2c(cc1OC)CN(CCc1ccc(NC(=O)c3cccc4c(=O)c5cccc(C)c5[nH]c34)cc1)CC2` has a melting point of 175 °C. In the case of `OC(COCC1CNCCO1)c1ccc2ccccc2c1` (stereo not drawn), the melting point is reported as 141 to 144 °C. `COC1CN(c2ccc(N3C[C@H](CO)OC3=O)cc2F)C1` showed a melting point of 131 to 132 °C. `COc1ccc(-c2cncc(OC3SCC(O)C(O)C3O)c2)cn1` (stereo not drawn) showed a melting point of 189 °C. `CCOP(=O)(OCC)C1CCc2cc(C(F)(F)F)cc3[nH]c(=O)c(=O)n1c23` (stereo not drawn) showed a melting point of 161 °C. In the case of `Nc1ncnc2c1c(-c1ccc(Oc3ccccc3)cc1)cn2C1CCC(=O)CC1`, the melting point is reported as 252 to 254 °C. In the case of `O=c1nc(-c2cccc(CN3CCC(Cc4ccccc4)CC3)n2)sc2ccccc12`, the melting point is reported as 151 to 153 °C. For `CC(C)(C)c1cc(-c2nn(CCC(=O)O)c3ncccc23)cc(C(C)(C)C)c1O`, the melting point was 183 to 186 °C. Work on `N#Cc1nn(-c2c(Cl)cc(C(F)(F)F)cc2Cl)c(-n2cncn2)c1S(=O)(=O)C(F)(F)F` yielded a melting point of 172 to 174 °C. Work on `Cc1ccc(S(=O)(=O)OC[C@@H](O)CCc2ccccc2)cc1` yielded a melting point of 68 to 69 °C. In the case of `CCn1c(=O)c(C#N)c(N2CCCC2)c2ccc(C)nc21`, the melting point is reported as 211 to 213 °C. Molecule `Cc1cccc(-c2cccc(OC3SCC(O)C(O)C3O)c2)n1` (stereo not drawn) has a melting point of 143 °C. `CCOC(=O)CCCn1c(Nc2cnc(OC)cc2C)nc2c(Cl)ccc(C(CC)CC)c21` showed a melting point of 140 to 142 °C. For `CC(C)(C)c1nc2cc(CC#N)ccc2s1`, the melting point was 50 to 52 °C. In the case of `COc1ccccc1CN[C@H]1CCCN[C@H]1c1cc(Br)cc(Br)c1` (relative stereo), the melting point is reported as > 240 °C. `C[C@H](NC(=O)Cc1cc(F)cc(F)c1)C(=O)N[C@@H]1C(=O)Nc2ccccc2S[C@@H]1c1ccc(Br)s1` showed a melting point of 139 to 140 °C. In the case of `Cc1ccc(-c2nc(COc3ccc(CCCn4ccnc4)cc3)co2)s1`, the melting point is reported as 83 to 84 °C. In the case of `O=S(=O)(NCC1CCOCC1)c1ccc(Cl)cc1`, the melting point is reported as 118 to 119 °C. Work on `O=[N+]([O-])c1ccc(F)c(-c2cccc(CO)c2)c1` yielded a melting point of 113 to 114 °C. With `CCCCN1C(N)=NC(Oc2cccc(C)c2)=NS1(=O)=O` the melting point was 169 to 171 °C. In the case of `CC(C)n1nc(-c2sc(N)nc2-c2cccc(F)c2)ccc1=O`, the melting point is reported as 237 to 238 °C. Molecule `C=CCCOc1ccc(C[C@H](NC(=O)OC(C)(C)C)C(=O)N[C@@H](CC(C)C)C(=O)N[C@@H](CC=C)C(=O)OC)cc1` has a melting point of 166 to 168 °C. For `C=Cc1cncc(-c2cc(NC(=O)Cc3ccc4ccccc4c3)n[nH]2)c1`, the melting point was 218 to 220 °C. `COc1ccc(Nc2ccc(Nc3nc(C)nc4cc(-c5ccccc5)sc34)cc2)cc1` showed a melting point of 181 to 185 °C. `CC(C)Oc1ccc2c(c1)N(C)C(=O)N(c1ccc(C(F)(F)F)cc1)S2(=O)=O` showed a melting point of 158 to 160 °C. With `CON1C(=O)CC2(CCN(C(=O)C3=CN(Cc4ccccc4)C=CC3)CC2)C1=O` the melting point was 57 to 73 °C. For `Cc1cc2c(NCc3ccc4c(c3)OCO4)nc(-c3ccc(C(=O)O)cc3)nc2s1`, the melting point was > 250 °C.
